Assay results published in EP4678638A1, “NEW E3 UBIQUITIN LIGASE LIGAND, PROTEIN DEGRADATION AGENT AND USE THEREOF” (priority 2023, dated 2024).

What was measured:
[1] = tested on: 22RV1; test: CCK-8 proliferation, 22RV1; format: cell-based; details: Homo sapiens, 96 hours, read-out: Inhibitory activity (IC50) on tumor cell proliferation, 22RV1
Method: The tumor cells used herein were cultured in a cell culture medium listed in table A1 at 37°C in an incubator with 5% CO2. Prior to experimentation, all cell lines used were correctly identified by STR profiling, and tested negative for mycoplasma contamination using a mycoplasma detection kit through routine screenings. Table A1. Tumor cells and cell culture medium used in the present disclosure
IC50 values of the compounds of the present disclosure (including the compounds in Table 1, and compounds of examples) were measured using the Meilun Cell Counting Kit-8 kit from Dalian Meilun Biotech Co., Ltd. Assay details are as follows: tumor cells were seeded in a 96-well plate at a density listed in Table A2. After 24h, 100 µL of the inoculated cells were treated with 0.5µL of the compounds of the present disclosure (including the compounds in Tables 1 and 2, and compounds of examples) at 10 different successively decreasing concentrations (starting at the highest concentration of 10µM; 5-fold serial dilutions). After the cells were treated with the compounds of the present disclosure for a period of time, the cell viability detection reagent was added to the culture medium for cell viability assessment according to the instructions provided with the CCK-8 kit. […] The growth inhibition of the compounds of the present disclosure on cells was plotted by Prism Graphpad software, and the IC50 values of the compounds of the present disclosure were calculated therefrom. […] Seeding protocol and treatment time for tumor cells

[2] = tested on: CCRF-CEM; test: CCK-8 proliferation, CCRF-CEM; format: cell-based, Human; details: Homo sapiens, CCRF-CEM; CCK-8; 96 hours; read-out: Inhibitory activity (IC50) on tumor cell proliferation, CCRF-CEM
In short: (§1)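 Cells seeded, then after 24 h treated with 10 concentrations (top 10 µM, 5-fold serial dilution) for a line-specific time at 37°C, 5% CO2. Viability read by CCK-8; IC50 fitted from growth-inhibition curves.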

[3] = tested on: SR; test: CCK-8 proliferation, SR; format: cell-based, Human; details: Homo sapiens, SR; CCK-8; 72 hours; read-out: Inhibitory activity (IC50) on tumor cell proliferation, SR
In short: as §1

[4] = molecular target: T1, CDK4 (Homo sapiens, UniProt P11802); test: Western blot degradation of CDK4 (MDA-MB-231 Cell); format: cell-based; details: Table D3
T1 construct: evaluate the effects of the compounds of the present disclosure on the expression of target proteins in cells; endogenous in cells; host or cells: MDA-MB-231
In short: (§2)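 Quantification by ImageJ densitometry of Western blot bands: DC50 is the fitted concentration halving band intensity relative to DMSO. Percent remaining uses internal-control normalization, and degradation rate is its complement.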

[5] = tested on: MM.1S; test: CCK-8 proliferation, MM.1S; format: cell-based; details: Homo sapiens, MM1.S; CCK-8; 72 hours; read-out: Inhibitory activity (IC50) on tumor cell proliferation, MM1S
In short: as §1

[6] = tested on: H1975; test: CCK-8 proliferation, NCI-H1975 (H1975); format: cell-based, Human; details: Homo sapiens, NCI-H1975; CCK-8; 96 hours; read-out: Inhibitory activity (IC50) on tumor cell proliferation, H1975
In short: as §1

[7] = molecular target: T2, CDK6 (Homo sapiens, UniProt Q00534); test: Western blot degradation of CDK6 (MDA-MB-231 Cell); format: cell-based; details: Table D3
T2 construct: evaluate the effects of the compounds of the present disclosure on the expression of target proteins in cells; endogenous in cells; host or cells: MDA-MB-231
In short: as §2

[8] = tested on: MV-4-11; test: CCK-8 proliferation, MV-4-11; format: cell-based, Human; details: Homo sapiens, MV4-11; CCK-8; 72 or 96 hours; read-out: Inhibitory activity (IC50) on tumor cell proliferation, MV-4-11
In short: as §1

[9] = tested on: Kasumi-1; test: CCK-8 proliferation, Kasumi-1; format: cell-based, Human; details: Homo sapiens, Kasumi 1, 72 hours, read-out: Inhibitory activity (IC50) on tumor cell proliferation, Kasumi-1
In short: as §1

[10] = tested on: MCF7; test: CCK-8 proliferation, MCF7 (MCF-7); format: cell-based; details: Homo sapiens, MCF7; CCK-8; read-out: Inhibitory activity (IC50) on tumor cell proliferation, MCF7
In short: as §1

T2 sequence (Q00534 whole entry): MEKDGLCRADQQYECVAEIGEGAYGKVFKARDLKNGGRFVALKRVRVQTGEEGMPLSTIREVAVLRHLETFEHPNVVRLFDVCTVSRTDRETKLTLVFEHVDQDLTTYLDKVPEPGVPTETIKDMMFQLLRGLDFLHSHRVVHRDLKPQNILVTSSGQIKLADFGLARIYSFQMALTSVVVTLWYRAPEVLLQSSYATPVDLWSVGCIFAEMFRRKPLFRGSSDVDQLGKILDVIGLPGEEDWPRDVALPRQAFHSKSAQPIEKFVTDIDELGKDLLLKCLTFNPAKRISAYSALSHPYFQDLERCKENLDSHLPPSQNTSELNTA
T1 sequence (P11802 whole entry): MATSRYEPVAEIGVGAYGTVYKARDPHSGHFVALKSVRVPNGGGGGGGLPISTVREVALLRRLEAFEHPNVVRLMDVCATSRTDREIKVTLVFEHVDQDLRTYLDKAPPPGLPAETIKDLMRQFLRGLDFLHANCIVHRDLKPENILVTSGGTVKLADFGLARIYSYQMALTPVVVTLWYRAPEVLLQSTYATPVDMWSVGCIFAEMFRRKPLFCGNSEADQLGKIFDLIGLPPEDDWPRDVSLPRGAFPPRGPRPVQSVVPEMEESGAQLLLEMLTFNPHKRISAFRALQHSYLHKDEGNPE

SMILES | IC50 [1] | IC50 [2] | IC50 [3] | Degradation of substrate protein CDK4 (substrate protein remaining %) [4] | IC50 [5] | IC50 [6] | Degradation of substrate protein CDK6 (substrate protein remaining %) [7] | IC50 [8] | IC50 [9] | IC50 [10]
Cc1nc2c(F)cc(-c3nc(Nc4ccc(CN5CCN(Cc6cccc(N7CCC(=O)NC7=O)c6)CC5)cn4)ncc3F)cc2n1C(C)C [GT-06666, 1-(3-((4-((6-((5-fluoro-4-(4-fluoro-1-isopropyl-2-methyl-1H-benzo[d]imidazol-6-yl)pyrimidin-2-yl)amino)pyridin-3-yl)methyl)piperazin-1-yl)methyl)phenyl)dihydropyrimidine-2,4(1H,3H)-dione] | 50 to 100 nM | 100 to 500 nM | 100 to 500 nM | A (A is defined as 0% ≤ substrate protein remaining % ≤ 80%) | 500 to 1000 nM | 500 to 1000 nM | A (A is defined as 0% ≤ substrate protein remaining % ≤ 80%) | 10 to 50 nM | 100 to 500 nM | 100 to 500 nM
Cc1nc2c(F)cc(-c3nc(Nc4ccc(N5CCC(N6CCN(Cc7ccc(N8CCC(=O)NC8=O)cc7)CC6)CC5)cn4)ncc3F)cc2n1C(C)C [GT-06739, 1-(4-((4-(1-(6-((5-fluoro-4-(4-fluoro-1-isopropyl-2-methyl-1H-benzo[d]imidazol-6-yl)pyrimidin-2-yl)amino)pyridin-3-yl)piperidin-4-yl)piperazin-1-yl)methyl)phenyl)dihydropyrimidine-2,4(1H,3H)-dione] | 10 to 50 nM | 100 to 500 nM | 50 to 100 nM | A (A is defined as 0% ≤ substrate protein remaining % ≤ 80%) | 100 to 500 nM | 100 to 500 nM | B (B is defined as substrate protein remaining % > 80%) | 10 to 50 nM | 50 to 100 nM | 50 to 100 nM
Cc1nc2c(F)cc(-c3nc(Nc4ccc(N5CCC(N6CCN(Cc7cccc(N8CCC(=O)NC8=O)c7)CC6)CC5)cn4)ncc3F)cc2n1C(C)C [GT-06740, 1-(3-((4-(1-(6-((5-fluoro-4-(4-fluoro-1-isopropyl-2-methyl-1H-benzo[d]imidazol-6-yl)pyrimidin-2-yl)amino)pyridin-3-yl)piperidin-4-yl)piperazin-1-yl)methyl)phenyl)dihydropyrimidine-2,4(1H,3H)-dione] | 10 to 50 nM | 100 to 500 nM | 10 to 50 nM | A (A is defined as 0% ≤ substrate protein remaining % ≤ 80%) | 100 to 500 nM | 100 to 500 nM | B (B is defined as substrate protein remaining % > 80%) | 10 to 50 nM | 50 to 100 nM | 50 to 100 nM
Cc1nc2c(F)cc(-c3nc(Nc4ccc(N5CCC(N6CCN(Cc7ccc(N8CCC(=O)NC8=O)cn7)CC6)CC5)cn4)ncc3F)cc2n1C(C)C [GT-06741, 1-(6-((4-(1-(6-((5-fluoro-4-(4-fluoro-1-isopropyl-2-methyl-1H-benzo[d]imidazol-6-yl)pyrimidin-2-yl)amino)pyridin-3-yl)piperidin-4-yl)piperazin-1-yl)methyl)pyridin-3-yl)dihydropyrimidine-2,4(1H,3H)-dione] | 10 to 50 nM | 50 to 100 nM | 10 to 50 nM | A (A is defined as 0% ≤ substrate protein remaining % ≤ 80%) | 100 to 500 nM | 100 to 500 nM | B (B is defined as substrate protein remaining % > 80%) | 10 to 50 nM | 100 to 500 nM | 50 to 100 nM
Cc1nc2c(F)cc(-c3nc(Nc4ccc(N5CCC(N6CCN(Cc7cccc(NC8CCC(=O)NC8=O)c7)CC6)CC5)cn4)ncc3F)cc2n1C(C)C (stereo not drawn) [GT-06743, 3-((3-((4-(1-(6-((5-fluoro-4-(4-fluoro-1-isopropyl-2-methyl-1H-benzo[d]imidazol-6-yl)pyrimidin-2-yl)amino)pyridin-3-yl)piperidin-4-yl)piperazin-1-yl)methyl)phenyl)amino)pip eridine-2,6-dione] | 10 to 50 nM | 100 to 500 nM | 50 to 100 nM | A (A is defined as 0% ≤ substrate protein remaining % ≤ 80%) | 100 to 500 nM | 100 to 500 nM | B (B is defined as substrate protein remaining % > 80%) | 50 to 100 nM | 100 to 500 nM | 100 to 500 nM
Cc1nc2c(F)cc(-c3nc(Nc4ccc(N5CCC(N(C)Cc6ccc(N7CCC(=O)NC7=O)cc6)CC5)cn4)ncc3F)cc2n1C(C)C [GT-06838, 1-(4-(((1-(6-((5-fluoro-4-(4-fluoro-1-isopropyl-2-methyl-1H-benzo[d]imidazol-6-yl)pyrimidin-2-yl)amino)pyridin-3-yl)piperidin-4-yl)(methyl)amino)methyl)phenyl)dihydropyrimidine-2,4(1H,3H)-dione] | 10 to 50 nM | 100 to 500 nM | 10 to 50 nM | A (A is defined as 0% ≤ substrate protein remaining % ≤ 80%) | 100 to 500 nM | 100 to 500 nM | B (B is defined as substrate protein remaining % > 80%) | 10 to 50 nM | 50 to 100 nM | 50 to 100 nM
Cc1nc2c(F)cc(-c3nc(Nc4ccc(N5CCC(N(C)Cc6cccc(N7CCC(=O)NC7=O)c6)CC5)cn4)ncc3F)cc2n1C(C)C [GT-06839, 1-(3-(((1-(6-((5-fluoro-4-(4-fluoro-1-isopropyl-2-methyl-1H-benzo[d]imidazol-6-yl)pyrimidin-2-yl)amino)pyridin-3-yl)piperidin-4-yl)(methyl)amino)methyl)phenyl)dihydropyrimidine-2,4(1H,3H)-dione] | 10 to 50 nM | 100 to 500 nM | 50 to 100 nM | A (A is defined as 0% ≤ substrate protein remaining % ≤ 80%) | 100 to 500 nM | 100 to 500 nM | A (A is defined as 0% ≤ substrate protein remaining % ≤ 80%) | 10 to 50 nM | 10 to 50 nM | 50 to 100 nM
Cc1nc2c(F)cc(-c3nc(Nc4ccc(N5CCC(N(C)Cc6ccc(N7CCC(=O)NC7=O)cn6)CC5)cn4)ncc3F)cc2n1C(C)C [GT-06840, 1-(6-(((1-(6-((5-fluoro-4-(4-fluoro-1-isopropyl-2-methyl-1H-benzo[d]imidazol-6-yl)pyrimidin-2-yl)amino)pyridin-3-yl)piperidin-4-yl)(methyl)amino)methyl)pyridin-3-yl)dihydropyrimidine-2,4(1H,3H)-dione] | 50 to 100 nM | 100 to 500 nM | 50 to 100 nM | A (A is defined as 0% ≤ substrate protein remaining % ≤ 80%) | 100 to 500 nM | 100 to 500 nM | B (B is defined as substrate protein remaining % > 80%) | 50 to 100 nM | 100 to 500 nM | 1 to 10 nM
Cc1nc2c(F)cc(-c3nc(Nc4ccc(N5CCC(N(C)Cc6ccc(N7CCC(=O)NC7=O)nc6)CC5)cn4)ncc3F)cc2n1C(C)C [GT-06841, 1-(5-(((1-(6-((5-fluoro-4-(4-fluoro-1-isopropyl-2-methyl-1H-benzo[d]imidazol-6-yl)pyrimidin-2-yl)amino)pyridin-3-yl)piperidin-4-yl)(methyl)amino)methyl)pyridin-2-yl)dihydropyrimidine-2,4(1H,3H)-dione] | 10 to 50 nM | 100 to 500 nM | 10 to 50 nM | A (A is defined as 0% ≤ substrate protein remaining % ≤ 80%) | 100 to 500 nM | 100 to 500 nM | A (A is defined as 0% ≤ substrate protein remaining % ≤ 80%) | 10 to 50 nM | 50 to 100 nM | 50 to 100 nM
